Where two headings read alike, the source gives them in different places.
How the values were obtained:
Assay type in all cases: in vivo
Puccinia polysora = assay: Field assessment of Puccinia polysora (PUCCPY) in corn; conditions: EC + Trycol adjuvant
Magnaporthe grisea = conditions: two applications, EC + Trycol adjuvant, rice
Ramularia collo-cygni = assay: Field assessment of Ramularia collo-cygni (RAMUCC) on barley; conditions: 5% EC + Trycol adjuvant, winter barley
Procedure: Field Assessment of Ramularia […]) on Barley: A fungicidal treatment containing a 5% EC formulation of compound I, tanked mixed with an adjuvant (Trycol, 50% w/w at 0.1% v/v), was sprayed on barley plants (winter barley; Cassia variety) at BBCH 33 growth stage of winter barley (5% infection on L5 at application), under natural infection of Ramularia leaf spot of barley. […] Disease severity was recorded as a percentage of visual diseased foliage on whole plot. Ramularia leaf spot of barley infection was assessed three times at 7, 14 and 21 days after the last application. The disease infection was recorded following EPPO PP1/26 guideline prescriptions. Area under the disease progress curve (AUDPC) was calculated for each plot using the sets of recorded severity data. Relative AUDPC (% control based on AUDPC) was calculated as percent of the nontreated control.

Cercospora beticola = assay: Field assessment of Cercospora beticola (CERCBE) on sugar beet, two trials averaged
Procedure: Field Assessment of Cercospora beticola (CERCBE) on Sugar Beet: Assessment of compound I of CERCBE on sugar beet was performed in two separate field trials. In the first trial, a fungicidal treatment containing an EC and SC formulations of compound I by itself and in combination with an adjuvant (Phase II, 50% w/w at 0.5% v/v) was sprayed on sugar beet plants ([…] variety) six times during the course of 7 weeks at the 18-39 growth stages of sugar beet. […] In the second trial, a fungicidal treatment containing an EC and SC formulations of compound I by itself and in combination with an adjuvant (Phase II, 50% w/w at 0.5% v/v) was sprayed on sugar beet plants (BEAVA) five times during the course of 4 weeks at the 36-49 growth stages of sugar beet. […] Disease severity was recorded as a percentage of visual diseased foliage on whole plot. Cercospora leaf spot infection was assessed three times at 7, 14 and 21 days after the last application. The disease infection was recorded following EPPO PP 1/1 (4) guideline prescriptions. Area under the disease progress curve (AUDPC) was calculated for each plot using the sets of recorded severity data. Relative AUDPC (% control based on AUDPC) was calculated as percent of the nontreated control and averaged over both field trials.

Pyrenophora teres [1] = assay: Field assessment of Pyrenophora teres (PYRNTE) on barley, Trial 1 (inoculated); conditions: EC + Trycol
Excerpt: Field Assessment of Pyrenophora teres ([…]) on Barley: A fungicidal treatment containing an EC formulation of compound I, tanked mixed with an adjuvant (Trycol, 50% w/w at 0.1% v/v), was sprayed on barley plants (spring barley; […] variety) twice, the first application at BBCH 37-43 growth stages of spring barley (0.01% infection on L1 at application) and the second application at growth stages 53-57 of spring barley (6.25% infection at application). […] The experimental plots were inoculated with net blotch of barley (1,000,000 spores/mL) at growth stage 39 of spring barley 1 day after the first […]. […] Disease severity was recorded as a percentage of visual diseased foliage on whole plot. Net blotch of barley infection was assessed three times at 7, 14 and 21 days after the last application. The disease infection was recorded following EPPO PP1/26 guideline prescriptions. Area under the disease progress curve (AUDPC) was calculated for each plot using the sets of recorded severity data. Relative AUDPC (% control based on AUDPC) was calculated as percent of the nontreated control.

Pyrenophora teres [2] = assay: Field assessment of Pyrenophora teres (PYRNTE) on barley, Trial 2 (natural infection); conditions: EC + Trycol; for % Control (AUDPC) of PYRNTE, Trial 2: barley
Procedure: Compound I was applied at a water volume of 200 L/ha under natural infection of Pyrenophora teres. Disease severity was recorded as a percentage of visual diseased foliage on whole plot. Net blotch of barley infection was assessed three times at 7, 14 and 21 days after the last application. The disease infection was recorded following EPPO PP1/26 guideline prescriptions. Area under the disease progress curve (AUDPC) was calculated for each plot using the sets of recorded severity data. Relative AUDPC (% control based on AUDPC) was calculated as percent of the nontreated control.

[3] = system: peanut (ARHHY, Arachis hypogaea); assay: Yield of peanut in Sclerotium rolfsii field trials; conditions: 49 DAAD
Cercospora sojina = assay: Field assessment of Cercospora sojina (CERSO) in soybean; conditions: for Percent Visual Severity of CERCSO: soybean upper canopy, untreated 8.6; for CERCSO Percent of Untreated (AUDPC): leaftop severity
[4] = system: soybean (GLYMX, Glycine max); assay: Yield of soybean in Cercospora sojina field trials; conditions: harvest at crop maturity
[5] = 50 g/ha, Agnique BP420 200 mL/ha
[6] = 75 g/ha, Agnique BP420 300 mL/ha
[7] = 100 g/ha, Adsee C80W 80% 250 g/ha
[8] = 100 g/ha, Agnique BP420 400 mL/ha
[9] = 150 g/ha, Agnique BP420 600 mL/ha

**Q.** Which “Disease control of PUCCPY, percent control based on AUDPC” value (Puccinia polysora; 50 g ai/ha) does the source give for `COc1ccnc(C(=O)N[C@@H](C)C(=O)O[C@@H](C)C(c2ccc(F)cc2)c2ccc(F)cc2)c1OC(C)=O` [Compound I, (S)-1,1-bis(4-fluorophenyl)propan-2-yl (3-acetoxy-4-methoxypicolinoyl)-L-alaninate] here?
**A.** C (26-50)

**Q.** What about the “Disease control of PUCCPY, percent control based on AUDPC” value (Puccinia polysora; 100 g ai/ha) of the same compound?
**A.** B (51-75)

**Q.** What about the “Disease control of PUCCPY, percent control based on AUDPC” value (Puccinia polysora; 150 g ai/ha) of the same compound?
**A.** B (51-75)

**Q.** What about the “Disease control of PYRIOR, percent control based on AUDPC” value (Magnaporthe grisea; 50 g ai/ha) of the same compound?
**A.** C (26-50)

**Q.** And the “Disease control of PYRIOR, percent control based on AUDPC” value (Magnaporthe grisea; 100 g ai/ha)?
**A.** C (26-50)

**Q.** And the “Disease control of PYRIOR, percent control based on AUDPC” value (Magnaporthe grisea; 150 g ai/ha)?
**A.** B (51-75)

**Q.** What about the “Disease control of PYRIOR, percent control based on AUDPC” value (Magnaporthe grisea; 200 g ai/ha) of the same compound?
**A.** B (51-75)

**Q.** What about the “Disease control of RAMUCC, percent control based on AUDPC” value (Ramularia collo-cygni; 75 g ai/ha) of the same compound?
**A.** C (26-50)

**Q.** What about the “Disease control of RAMUCC, percent control based on AUDPC” value (Ramularia collo-cygni; 100 g ai/ha) of the same compound?
**A.** C (26-50)

**Q.** And the “Disease control of RAMUCC, percent control based on AUDPC” value (Ramularia collo-cygni; 150 g ai/ha)?
**A.** B (51-75)

**Q.** What about the “% Control (AUDPC) of CERCBE” value (Cercospora beticola; EC, 75 g ai/ha, no adjuvant) of the same compound?
**A.** B (51-75)

**Q.** What about the “% Control (AUDPC) of CERCBE” value (Cercospora beticola; EC, 75 g ai/ha, with Phase II adjuvant) of the same compound?
**A.** B (51-75)

**Q.** And the “% Control (AUDPC) of CERCBE” value (Cercospora beticola; EC, 150 g ai/ha, no adjuvant)?
**A.** A (76-100)

**Q.** And the “% Control (AUDPC) of CERCBE” value (Cercospora beticola; SC, 75 g ai/ha, no adjuvant)?
**A.** B (51-75)

**Q.** And the “% Control (AUDPC) of CERCBE” value (Cercospora beticola; SC, 75 g ai/ha, with Phase II adjuvant)?
**A.** B (51-75)

**Q.** What about the “% Control (AUDPC) of CERCBE” value (Cercospora beticola; SC, 150 g ai/ha, no adjuvant) of the same compound?
**A.** A (76-100)

**Q.** What about the “% Control (AUDPC) of PYRNTE, Trial 1” value (Pyrenophora teres [1]; 75 g ai/ha) of the same compound?
**A.** B (51-75)

**Q.** What about the “% Control (AUDPC) of PYRNTE, Trial 1” value (Pyrenophora teres [1]; 100 g ai/ha) of the same compound?
**A.** B (51-75)

**Q.** What about the “% Control (AUDPC) of PYRNTE, Trial 1” value (Pyrenophora teres [1]; 150 g ai/ha) of the same compound?
**A.** B (51-75)

**Q.** And the “% Control (AUDPC) of PYRNTE, Trial 2” value (Pyrenophora teres [2]; 50 g ai/ha)?
**A.** B (51-75)

**Q.** And the “% Control (AUDPC) of PYRNTE, Trial 2” value (Pyrenophora teres [2]; 100 g ai/ha)?
**A.** B (51-75)

**Q.** And the “% Control (AUDPC) of PYRNTE, Trial 2” value (Pyrenophora teres [2]; 150 g ai/ha)?
**A.** B (51-75)

**Q.** What about the “control of Pyrenophora teres on barley (in words)” value (Pyrenophora teres [2]; replicated field trial, 50, 100 and 150 g ai/ha, natural infection) of the same compound?
**A.** useful levels of control

**Q.** And the “ARHHY Yield Percent of Untreated” value [3, 5]?
**A.** 96.4%

**Q.** What about the “ARHHY Yield Percent of Untreated” value ([3]; 50 g/ha, MSO 100 g/ha) of the same compound?
**A.** 104.9%

**Q.** And the “ARHHY Yield Percent of Untreated” value [3, 6]?
**A.** 113.9%

**Q.** And the “ARHHY Yield Percent of Untreated” value ([3]; 75 g/ha, MSO 150 g/ha)?
**A.** 112.8%

**Q.** What about the “ARHHY Yield Percent of Untreated” value [3, 7] of the same compound?
**A.** 122.0%

**Q.** What about the “ARHHY Yield Percent of Untreated” value [3, 8] of the same compound?
**A.** 118.0%

**Q.** What about the “ARHHY Yield Percent of Untreated” value ([3]; 100 g/ha, MSO 200 g/ha) of the same compound?
**A.** 115.7%

**Q.** What about the “ARHHY Yield Percent of Untreated” value [3, 9] of the same compound?
**A.** 130.0%

**Q.** And the “ARHHY Yield Percent of Untreated” value ([3]; 150 g/ha, MSO 300 g/ha)?
**A.** 131.5%

**Q.** And the “Percent Visual Severity of CERCSO” value (Cercospora sojina; [5])?
**A.** 5.6%

**Q.** What about the “Percent Visual Severity of CERCSO” value (Cercospora sojina; 50 g/ha, MSO 100 g/ha) of the same compound?
**A.** 6.5%

**Q.** And the “Percent Visual Severity of CERCSO” value (Cercospora sojina; [6])?
**A.** 4.2%

**Q.** And the “Percent Visual Severity of CERCSO” value (Cercospora sojina; 75 g/ha, MSO 150 g/ha)?
**A.** 3.6%

**Q.** And the “Percent Visual Severity of CERCSO” value (Cercospora sojina; [7])?
**A.** 4.5%

**Q.** What about the “Percent Visual Severity of CERCSO” value (Cercospora sojina; [8]) of the same compound?
**A.** 4.5%

**Q.** And the “Percent Visual Severity of CERCSO” value (Cercospora sojina; 100 g/ha, MSO 200 g/ha)?
**A.** 4.3%

**Q.** And the “Percent Visual Severity of CERCSO” value (Cercospora sojina; [9])?
**A.** 3.3%

**Q.** And the “Percent Visual Severity of CERCSO” value (Cercospora sojina; 150 g/ha, MSO 300 g/ha)?
**A.** 3.3%

**Q.** What about the “CERCSO Percent of Untreated (AUDPC)” value (Cercospora sojina; [5]) of the same compound?
**A.** 62.0%

**Q.** What about the “CERCSO Percent of Untreated (AUDPC)” value (Cercospora sojina; 50 g/ha, MSO 100 g/ha) of the same compound?
**A.** 73.8%

**Q.** And the “CERCSO Percent of Untreated (AUDPC)” value (Cercospora sojina; [6])?
**A.** 63.1%

**Q.** What about the “CERCSO Percent of Untreated (AUDPC)” value (Cercospora sojina; 75 g/ha, MSO 150 g/ha) of the same compound?
**A.** 62.9%

**Q.** What about the “CERCSO Percent of Untreated (AUDPC)” value (Cercospora sojina; [7]) of the same compound?
**A.** 58.3%

**Q.** And the “CERCSO Percent of Untreated (AUDPC)” value (Cercospora sojina; [8])?
**A.** 61.6%

**Q.** And the “CERCSO Percent of Untreated (AUDPC)” value (Cercospora sojina; 100 g/ha, MSO 200 g/ha)?
**A.** 52.4%

**Q.** And the “CERCSO Percent of Untreated (AUDPC)” value (Cercospora sojina; [9])?
**A.** 48.4%

**Q.** What about the “CERCSO Percent of Untreated (AUDPC)” value (Cercospora sojina; 150 g/ha, MSO 300 g/ha) of the same compound?
**A.** 53.5%

**Q.** And the “GLXMA Yield Percent of Untreated” value [4, 5]?
**A.** 117.0%

**Q.** What about the “GLXMA Yield Percent of Untreated” value ([4]; 50 g/ha, MSO 100 g/ha) of the same compound?
**A.** 108.0%

**Q.** What about the “GLXMA Yield Percent of Untreated” value [4, 6] of the same compound?
**A.** 119.2%

**Q.** And the “GLXMA Yield Percent of Untreated” value ([4]; 75 g/ha, MSO 150 g/ha)?
**A.** 114.6%

**Q.** And the “GLXMA Yield Percent of Untreated” value [4, 7]?
**A.** 115.3%

**Q.** And the “GLXMA Yield Percent of Untreated” value [4, 8]?
**A.** 117.6%

**Q.** And the “GLXMA Yield Percent of Untreated” value ([4]; 100 g/ha, MSO 200 g/ha)?
**A.** 113.4%

**Q.** And the “GLXMA Yield Percent of Untreated” value [4, 9]?
**A.** 114.8%

**Q.** What about the “GLXMA Yield Percent of Untreated” value ([4]; 150 g/ha, MSO 300 g/ha) of the same compound?
**A.** 112.9%
